Test results reported in patent US6756359B2, “C12 modified erythromycin macrolides and ketolides having antibacterial activity” (Chiron Corporation, priority 2001, dated 2004).
Values after ≈ are worked out from the molar mass of the structure shown.

How the values were obtained:
Assay in all cases: Antibacterial activity in vitro, MIC by broth microdilution
[1] = test system: S. pneumoniae Stpn_Mef 5654; format: cell-based, Streptococcus pneumoniae; details: Table 5, Strain ID K: S. pneumoniae Stpn_Mef 5654; unit assumed
Protocol: (§1) Representative compounds of the present invention were assayed in vitro for antibacterial activity against the bacterial isolates listed in Table 1 as follows:
(§2) The bacterial isolates listed in Table 1 were cultivated from −70° C. frozen stocks by two consecutive overnight passages (P1, P2) at 35° C. on 5% blood agar (Remel, Lenexa, Kans.). Chocolate agar (Remel) is used for Haemophilus influenzae. H. influenzae and Streptococcus pneumoniae are incubated in 5-10% CO2.
(§3) To determine the amount of solvent to be used to give the desired final concentration, the formula “weight obtained in mg/final concentration in mg/mL” will be used. It will give the amount of solvent in mL needed to be added to give the desired concentration. For example, if 2.5 mg/mL is the desired concentration and the weight of compound is 13.7 mg, then the amount of solvent to be added is 3.94 mL (13.7 mg/2.5 mg/mL=3.94 mLs). Methanol is used as the solvent to dissolve the test compounds. Further dilution of stock is done in sterile, deioinzed water. Drug stocks are kept frozen at −70° C., protected from light.
(§4) MICs are determined by the broth microdilution method in accordance with the NCCLS guidelines. In brief, organism suspensions are adjusted to a 0.5 McFarland standard to yield a final inoculum between 3×10^5 and 7×10^5 CFU/mL. Drug dilutions and inocula are made in sterile, cation adjusted Mueller-Hinton Broth (CAMHB) (Remel) for all but S. pneumoniae [CAMHB with 2-5% lysed horse blood (Remel)] and H. influenzae [Haemophilus Test Medium (Remel)]. An inoculum volume of 100 μl is added to wells containing 100 μl of broth with 2-fold serial dilutions of drug. All inoculated microdilution trays are incubated in ambient air at 35° C. for 18-24 hours, except for S. pneumoniae, and H. influenzae (both at 5-10% CO2).
(§5) Following appropriate incubation, the MIC is determined and the MIC is defined as the lowest concentration of the drug that prevented visible growth.

[2] = test system: S. pneumoniae Stpn_Erm 6849; format: cell-based, Streptococcus pneumoniae; details: Table 5, Strain ID I: S. pneumoniae Stpn_Erm 6849; unit assumed
Protocol: as §1, §2, §3, §4, §5

[3] = test system: S. pneumoniae Stpn_Mef S 3427; format: cell-based, Streptococcus pneumoniae; details: Table 5, Strain ID L: S. pneumoniae Stpn_Mef S 3427; unit assumed
Protocol: as §1, §2, §3, §4, §5

[4] = test system: S. pneumoniae Stpn_Erm S 4297; format: cell-based, Streptococcus pneumoniae; details: Table 5, Strain ID J: S. pneumoniae Stpn_Erm S 4297
Protocol: as §1, §2, §3, §4, §5

[5] = test system: S. pneumoniae Stpn_297-749 Pen R; format: cell-based, Streptococcus pneumoniae; details: Table 5, Strain ID G: S. pneumoniae Stpn_297-749
Protocol: as §1, §2, §3, §4, §5

S. pneumoniae Stpn_49619 = format: cell-based, Streptococcus pneumoniae; details: Table 5, Strain ID F: S. pneumoniae Stpn_49619
Protocol: as §1, §2, §3, §4, §5

[6] = test system: S. pneumoniae Stpn_280-962 Pen S; format: cell-based, Streptococcus pneumoniae; details: Table 5, Strain ID H: S. pneumoniae Stpn_280-962
Protocol: as §1, §2, §3, §4, §5

H. influenzae Hain_49247 = format: cell-based, Haemophilus influenzae; details: Table 5, Strain ID M: H. influenzae Hain_49247; unit assumed
Protocol: as §1, §2, §3, §4, §5

S. aureus Stau_29213 = format: cell-based; details: Table 5, Strain ID A: S. aureus Stau_29213; unit assumed
Protocol: as §1, §2, §3, §4, §5

E. faecalis Enfa_29212 = format: cell-based; details: Table 5, Strain ID D: E. faecalis Enfa_29212; unit assumed
Protocol: as §1, §2, §3, §4, §5

[7] = test system: S. epidermidis Step_14990; format: cell-based; details: Table 5, Strain ID B: S. epidermidis Step_14990; unit assumed
Protocol: as §1, §2, §3, §4, §5

[8] = test system: S. epidermidis Step_f50654 Pen S; format: cell-based; details: Table 5, Strain ID C: S. epidermidis Step_f50654; unit assumed
Protocol: as §1, §2, §3, §4, §5

S. pyogenes Stpy_8668 = format: cell-based; details: Table 5, Strain ID E: S. pyogenes Stpy_8668
Protocol: as §1, §2, §3, §4, §5

MIC [1] [µg/mL]	MIC [2] [µg/mL]	MIC [3] [µg/mL]	MIC ([4]; unit assumed) [µg/mL]	MIC [5]	MIC (S. pneumoniae Stpn_49619)	MIC [6]	MIC (H. influenzae Hain_49247) [µg/mL]	MIC (S. aureus Stau_29213) [µg/mL]	MIC (E. faecalis Enfa_29212) [µg/mL]	MIC [7] [µg/mL]	MIC [8] [µg/mL]	MIC (S. pyogenes Stpy_8668)	MIC [4]	Compound
0.78 (≈ 0.928 µM)	1.56 (≈ 1.86 µM)	0.2 (≈ 0.238 µM)	0.2 (≈ 0.238 µM)	≦0.05	≦0.05	≦0.05	6.25 (≈ 7.44 µM)	0.4 (≈ 0.476 µM)	0.2 (≈ 0.238 µM)	0.2 (≈ 0.238 µM)	0.4 (≈ 0.476 µM)	≦0.05	–	CC[C@H]1OC(=O)[C@H](C)C(=O)[C@H](C)[C@@H](OC2O[C@H](C)C[C@H](N(C)C)[C@H]2O)[C@@](C)(OC)C[C@@H](C)C(=O)[C@H](C)[C@H]2N(CCCCn3cnc(-c4ccc(C)nc4)c3)C(=O)O[C@]12CC (stereo partly drawn) [Example 29, (3aS,4R,7R,9R,10R,11S,13R,15R,15aR)-3a,4-diethyl-11-methoxy-7,9,11,13,15-pentamethyl-1-{4-[4-(6-methylpyridin-3-yl)-1H-imidazol-1-yl]butyl}-2,6,8,14-tetraoxotetradecahydro-2H-oxacyclotetradecino[4,3-d][1,3]oxazol-10-yl 3,4,6-trideoxy-3-(dimethylamino)-D-xylo-hexopyranoside]
0.78 (≈ 0.909 µM)	0.4 (≈ 0.466 µM)	0.1 (≈ 0.117 µM)	0.1 (≈ 0.117 µM)	≦0.05	≦0.05	≦0.05	6.25 (≈ 7.28 µM)	0.2 (≈ 0.233 µM)	0.2 (≈ 0.233 µM)	0.2 (≈ 0.233 µM)	0.4 (≈ 0.466 µM)	≦0.05	–	CC[C@H]1OC(=O)[C@@](C)(F)C(=O)[C@H](C)[C@@H](OC2O[C@H](C)C[C@H](N(C)C)[C@H]2O)[C@@](C)(OC)C[C@@H](C)C(=O)[C@H](C)[C@H]2N(CCCCn3cnc(-c4ccc(C)nc4)c3)C(=O)O[C@]12CC (stereo partly drawn) [Example 30, (3aS,4R,7S,9R,10R,11S,13R,15R,15aR)-3a,4-diethyl-7-fluoro-11-methoxy-7,9,11,13,15-pentamethyl-1-{4-[4-(6-methylpyridin-3-yl)-1H-imidazol-1-yl]butyl}-2,6,8,14-tetraoxotetradecahydro-2H-oxacyclotetradecino[4,3-d][1,3]oxazol-10-yl 3,4,6-trideoxy-3-(dimethylamino)-D-xylo-hexopyranoside]
0.78 (≈ 0.913 µM)	0.4 (≈ 0.468 µM)	0.2 (≈ 0.234 µM)	0.2 (≈ 0.234 µM)	≦0.05	≦0.05	≦0.05	6.25 (≈ 7.32 µM)	0.2 (≈ 0.234 µM)	0.2 (≈ 0.234 µM)	0.4 (≈ 0.468 µM)	0.4 (≈ 0.468 µM)	≦0.05	–	CC[C@H]1OC(=O)[C@H](C)C(=O)[C@H](C)[C@@H](OC2O[C@H](C)C[C@H](N(C)C)[C@H]2O)[C@@](C)(OC)C[C@@H](C)C(=O)[C@H](C)[C@H]2N(CCCC(C)(C)n3cnc(-c4cccnc4)c3)C(=O)O[C@]12CC (stereo partly drawn) [Example 31, (3aS,4R,7R,9R,10R,11S,13R,15R,15aR)-3a,4-diethyl-11-methoxy-7,9,11,13,15-pentamethyl-1-[4-methyl-4-(4-pyridin-3-yl-1H-imidazol-1-yl)pentyl]-2,6,8,14-tetraoxotetradecahydro-2H-oxacyclotetradecino[4,3-d][1,3]oxazol-10-yl 3,4,6-trideoxy-3-(dimethylamino)-D-xylo-hexopyranoside]
0.78 (≈ 0.894 µM)	0.2 (≈ 0.229 µM)	0.2 (≈ 0.229 µM)	–	≦0.05	≦0.05	≦0.05	6.25 (≈ 7.17 µM)	0.2 (≈ 0.229 µM)	0.02 (≈ 0.0229 µM)	0.4 (≈ 0.459 µM)	0.4 (≈ 0.459 µM)	≦0.05	≦0.05	CC[C@H]1OC(=O)[C@@](C)(F)C(=O)[C@H](C)[C@@H](OC2O[C@H](C)C[C@H](N(C)C)[C@H]2O)[C@@](C)(OC)C[C@@H](C)C(=O)[C@H](C)[C@H]2N(CCCC(C)(C)n3cnc(-c4cccnc4)c3)C(=O)O[C@]12CC (stereo partly drawn) [Example 32, (3aS,4R,7S,9R,10R,11S,13R,15R,15aR)-3a,4-diethyl-7-fluoro-11-methoxy-7,9,11,13,15-pentamethyl-1-[4-methyl-4-(4-pyridin-3-yl-1H-imidazol-1-yl)pentyl]-2,6,8,14-tetraoxotetradecahydro-2H-oxacyclotetradecino [4,3-d][1,3]oxazol-10-yl 3,4,6-trideoxy-3-(dimethylamino)-D-xylo-hexopyranoside]
